Tests used:
[1] = Protocol: Testosterone undecanoate is metabolized into testosterone. Its degradation in whole blood into testosterone has been studied in conditions typically used in clinical trials.
Prior to discharge from the clinical facility, the subjects will be instructed to take 396 mg TU by mouth immediately prior to their dinner meal on Day 1, then twice daily on Days 2-6 immediately prior to their breakfast and dinner meals, and on Day 7 in the morning, immediately prior to their breakfast meal.
Subjects will return to the Clinic on Day 7 in the late afternoon (before dinner) with their study medication. Upon arrival at the clinic, their study drug will be counted to determine compliance during Day 1 through Day 7 post-AM dose. They will then be administered the study drug 396 mg TU by mouth immediately prior to a dinner meal (containing 30 g fat) which will be provided. Subjects will be instructed to consume the dinner in approximately 20 minutes. Subjects will remain in the unit overnight.
On the 8th day, 5 hrs after their AM meal, blood is collected in plain, EDTA and NaF-EDTA tubes. The plain tubes sit at room temperature (RT). The EDTA and NaF-EDTA tubes are placed on ice.
Samples will be collected into multiple Plain, EDTA and NaF-EDTA tubes. The Plain tube will be incubated at RT to allow blood clotting, as recommended by Clinical and Laboratory Standards Institute (CLSI 2010). […]

[2] = Dose titration concordance analysis (C6 vs Cavg) in hypogonadal men treated with oral TU; type: in vivo
Excerpt: One of the goals of this study was to determine whether the T concentration in blood samples collected into Plain tubes (yielding serum) can be used for making dose titration decisions. In previous studies, dose titration decisions were based on T concentrations in NaF-EDTA plasma.
The goal of dose-titration in men treated with oral TU is to bring the testosterone Cavg into the eugonadal range. Because titration decisions based on testosterone Cavg are not practical in real world clinical setting, single sample T concentrations can be used as surrogates of Cavg. Concordance analysis estimates how well dose titration based on two different measures (e.g., Cavg v. C6) work in guiding dose titration. […] However, to determine total concordance, effective off-diagonal titration also must be determined. Effective off-diagonal titration can be estimated for the following reasons. […] Second, the titration boundaries (425 to 970 ng/dL) fall within the eugonadal boundaries (300 to 1100 ng/dL), and the eugonadal range is wide (3.5 fold) compared to the largest dose increment (33%) or decrement (25%). This means that the dose increments/decrements employed can allow movement within the eugonadal range (e.g. increasing the dose of someone with a Cavg of 400 ng/dL will raise the Cavg to a maximum of 532 ng/dL [400×1.33]). Similarly, when titration decisions based on C6 are different from those based on Cavg, the outcome will often be a Cavg in the eugonadal range. For example, when a patient's C6 is less than 425 ng/dL (indicating a dose increase is required), but whose Cavg is 600 ng/dL (indicating no titration), the impact of titrating based on C6 is that the Cavg will increase but remain in the eugonadal range. The largest dose increase will result in a 33% increase in exposure which, in this case, will raise the Cavg to 798 ng/dL. Therefore, despite titration based on C6, this patient's Cavg is not likely to rise above the upper boundary of the eugonadal range. Thus, the titration decision based on C6 is effectively concordant with that based on Cavg, since both titration decisions will result in a patient with a Cavg in the eugonadal range. Selected cells in Table 3 indicate a patient's Cavg that would result in effective off-diagonal titration. Therefore, when comparing the effectiveness of dose-titration decisions based on C6 and Cavg, both concordance (on-diagonal agreement between C6 and Cavg) and effective off-diagonal agreement must be considered) [i.e., total concordance (percent of patients treated with oral TU who fall into given concordance boxes) is defined as the sum of on-diagonal and effective off-diagonal concordance (see area in Table 3 defined by heavy line). In the example presented, the C6 value is a serum value derived from a measured NaF-EDTA plasma value and a conversion factor that enables the conversion of NaF-EDTA plasma data to be converted to an equivalent serum data.
These reflect an on-diagonal concordance of 75% and 63% and an effective off-diagonal titration decision of 24% and 36% for Visit 2 and Visit 4b, respectively. Therefore, dose titration based on C6 can effectively adjust a patient's oral TU dose such that their Cavg is in the eugonadal range.

With `CCCCCCCCCCC(=O)O[C@H]1CC[C@H]2[C@@H]3CCC4=CC(=O)CC[C@]4(C)[C@H]3CC[C@]12C` [TU, testosterone undecanoate] the “degradation of TU in whole blood into testosterone” value [1] was “degrades extensively to testosterone”, the percent of patients ([2]; Visit 2, C6 425-970 ng/dL, Cavg 350-800 ng/dL) was 15.2% and the percent of patients ([2]; Visit 2, C6 425-970 ng/dL, Cavg <350 ng/dL) was 5.4%. For the same molecule, the percent of patients ([2]; Visit 2, C6 425-970 ng/dL, Cavg >800 ng/dL) was 2%, the percent of patients ([2]; Visit 2, C6 425-970 ng/dL, Total) was 22.6% and the percent of patients ([2]; Visit 2, C6 <425 ng/dL, Cavg 350-800 ng/dL) was 13.9%. It also gave a percent of patients ([2]; Visit 2, C6 <425 ng/dL, Cavg <350 ng/dL) of 59.4%, a percent of patients ([2]; Visit 2, C6 <425 ng/dL, Cavg >800 ng/dL) of 0% and a percent of patients ([2]; Visit 2, C6 <425 ng/dL, Total) of 73.3%. It also gave a percent of patients ([2]; Visit 2, C6 >970 ng/dL, Cavg 350-800 ng/dL) of 4.2%, a percent of patients ([2]; Visit 2, C6 >970 ng/dL, Cavg <350 ng/dL) of 0% and a percent of patients ([2]; Visit 2, C6 >970 ng/dL, Cavg >800 ng/dL) of 0.6%. It also gave a percent of patients ([2]; Visit 2, C6 >970 ng/dL, Total) of 4.8%, a percent of patients ([2]; Visit 2, Total, Cavg 350-800 ng/dL) of 33.3% and a percent of patients ([2]; Visit 2, Total, Cavg <350 ng/dL) of 64.8%. It also gave a percent of patients ([2]; Visit 2, Total, Cavg >800 ng/dL) of 2.6%, a percent of patients ([2]; Visit 4b, C6 425-970 ng/dL, Cavg 350-800 ng/dL) of 25% and a percent of patients ([2]; Visit 4b, C6 425-970 ng/dL, Cavg <350 ng/dL) of 10%. For the same molecule, the percent of patients ([2]; Visit 4b, C6 425-970 ng/dL, Cavg >800 ng/dL) was 0.6%, the percent of patients ([2]; Visit 4b, C6 425-970 ng/dL, Total) was 35.6% and the percent of patients ([2]; Visit 4b, C6 <425 ng/dL, Cavg 350-800 ng/dL) was 21.8%. For the same molecule, the percent of patients ([2]; Visit 4b, C6 <425 ng/dL, Cavg <350 ng/dL) was 37.5%, the percent of patients ([2]; Visit 4b, C6 <425 ng/dL, Cavg >800 ng/dL) was 0% and the percent of patients ([2]; Visit 4b, C6 <425 ng/dL, Total) was 59.3%. The percent of patients ([2]; Visit 4b, C6 >970 ng/dL, Cavg 350-800 ng/dL) was 4.3%, the percent of patients ([2]; Visit 4b, C6 >970 ng/dL, Cavg <350 ng/dL) was 0% and the percent of patients ([2]; Visit 4b, C6 >970 ng/dL, Cavg >800 ng/dL) was 0.6%. For the same molecule, the percent of patients ([2]; Visit 4b, C6 >970 ng/dL, Total) was 4.9%, the percent of patients ([2]; Visit 4b, Total, Cavg 350-800 ng/dL) was 51.1% and the percent of patients ([2]; Visit 4b, Total, Cavg <350 ng/dL) was 47.5%. The percent of patients ([2]; Visit 4b, Total, Cavg >800 ng/dL) was 1.2% and the “testosterone exposure versus dose” value ([2]; men treated with oral TU) was “dose proportional”.
